molecular target: T1, EHMT2 (Homo sapiens, UniProt Q96KQ7); assay: MDA-MB-231 H3K9me2 in-cell Western assay (EHMT2 ICW); type: cell-based; settings: Table II; MDA-MB-231 H3K9me2 in-cell Western; read-out: EHMT2 ICW (IC50 μM)
T1 construct: host or cells: MDA-MB-231
T1 sequence (Q96KQ7 1-1210): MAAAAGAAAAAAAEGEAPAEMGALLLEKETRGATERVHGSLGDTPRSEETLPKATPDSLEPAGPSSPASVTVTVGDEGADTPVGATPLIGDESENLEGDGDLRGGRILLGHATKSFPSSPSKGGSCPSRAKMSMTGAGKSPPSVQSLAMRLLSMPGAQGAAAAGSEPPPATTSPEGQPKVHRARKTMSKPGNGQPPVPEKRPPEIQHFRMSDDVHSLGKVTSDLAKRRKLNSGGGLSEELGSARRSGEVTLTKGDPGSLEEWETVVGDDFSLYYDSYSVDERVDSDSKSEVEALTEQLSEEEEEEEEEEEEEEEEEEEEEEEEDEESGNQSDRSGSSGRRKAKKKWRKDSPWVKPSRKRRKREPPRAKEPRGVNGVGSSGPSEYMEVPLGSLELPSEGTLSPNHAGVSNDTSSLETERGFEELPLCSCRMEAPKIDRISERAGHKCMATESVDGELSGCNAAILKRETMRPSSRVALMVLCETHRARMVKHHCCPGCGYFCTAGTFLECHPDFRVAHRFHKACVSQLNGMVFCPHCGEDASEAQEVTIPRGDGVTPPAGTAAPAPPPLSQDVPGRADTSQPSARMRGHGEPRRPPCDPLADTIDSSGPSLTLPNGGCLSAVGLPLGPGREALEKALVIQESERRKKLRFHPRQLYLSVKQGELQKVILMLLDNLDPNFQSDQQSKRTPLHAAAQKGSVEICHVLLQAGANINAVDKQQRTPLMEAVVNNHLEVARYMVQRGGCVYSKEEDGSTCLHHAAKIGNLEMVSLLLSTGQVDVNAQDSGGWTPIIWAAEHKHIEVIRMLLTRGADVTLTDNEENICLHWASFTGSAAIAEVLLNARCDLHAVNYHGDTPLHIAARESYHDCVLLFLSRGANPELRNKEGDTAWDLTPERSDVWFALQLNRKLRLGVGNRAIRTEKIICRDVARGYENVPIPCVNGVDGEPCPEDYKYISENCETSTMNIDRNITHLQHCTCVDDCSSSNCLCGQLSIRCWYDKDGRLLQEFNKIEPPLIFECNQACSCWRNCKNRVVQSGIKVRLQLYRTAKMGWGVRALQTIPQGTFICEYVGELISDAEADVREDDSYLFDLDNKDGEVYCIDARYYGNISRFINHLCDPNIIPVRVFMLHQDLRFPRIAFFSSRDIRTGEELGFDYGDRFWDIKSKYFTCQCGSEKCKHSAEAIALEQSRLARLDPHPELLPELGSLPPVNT
Excerpt: RPMI/Glutamax medium, Penicillin-Streptomycin, Heat Inactivated Fetal Bovine Serum, and D-PBS were purchased from Life Technologies (Grand Island, N.Y., USA). Odyssey blocking buffer, 800CW goat anti-mouse IgG (H+L) antibody, and Licor Odyssey Infrared Scanner were purchased from Licor Biosciences, Lincoln, Nebr., USA. […] 16% Paraformaldehyde was purchased from Electron Microscopy Sciences, Hatfield, Pa., USA).MDA-MB-231 cells were maintained in complete growth medium (RPMI supplemented with 10% v/v heat inactivated fetal bovine serum) and cultured at 37° C. under 5% CO2. UNC0638 was purchased from Sigma-Aldrich (St. Louis, Mo., USA).
Compound (100 nL) was added directly to 384-well cell plate. MDA-MB-231 cells (ATCC) were seeded in assay medium (RPMI/Glutamax supplemented with 10% v/v heat inactivated fetal bovine serum and 1% Penicillin/Streptomycin, Life Technologies) at a concentration of 3,000 cells per well to a Poly-D-Lysine coated 384-well cell culture plate with 50 μL per well. […] Plates were incubated at room temperature for 30 minutes and then incubated at 37° C., 5% CO2 for additional 48 hours. After the incubation, 50 μL per well of 8% paraformaldehyde (Electron Microscopy Sciences) in PBS was added to the plates and incubated at room temperature for 20 minutes. […] Next, 60 μL per well of Odyssey blocking buffer (Licor Biosciences) was added to each plate and incubated for 1 hour at room temperature. Blocking buffer was removed and 20 μL of monoclonal primary antibody α-H3K9me2 (Abcam) diluted 1:800 in Odyssey buffer with 0.1% Tween 20 (v/v) were added and plates were incubated overnight (16 hours) at 4° C. Plates were washed 5 times with 100 μL per well of wash buffer. Next 20 μL per well of secondary antibody was added (1:500 800CW donkey anti-mouse IgG (H+L) antibody (Licor Biosciences), 1:1000 DRAQ5 (Cell Signaling Technology) in Odyssey buffer with 0.1% Tween 20 (v/v)) and incubated for 1 hour at room temperature. The plates were washed 5 times with 100 μL per well wash buffer then 2 times with 100 μL per well of water. Plates were allowed to dry at room temperature then imaged on a Licor Odyssey Infrared Scanner (Licor Biosciences) which measured integrated intensity at 700 nm and 800 nm wavelengths. Both 700 and 800 channels were scanned.
First, the ratio for each well was determined by:
The average of the ratio values for each well was calculated and used to determine the percent inhibition for each test well in the plate. Control compound was serially diluted three-fold in DMSO for a total of 10 test concentrations beginning at 1 μM. Percent inhibition was calculated as: […]
IC50 curves were generated using triplicate wells per concentration of compound. […] IC50 values were calculated using a non-linear regression (variable slope-four parameter fit model) with by the following formula: […]

IC50 [µM] | Structure (SMILES)
> 10 | COc1ccc(N(C)c2nccc(NCC3CCN(C(C)=O)CC3)n2)cc1OCCCN1CCCC1 [Compound 158]
1 to 10 | COc1ccc(Nc2nccc(NCC3CCN(C)CC3)n2)cc1OCCCNc1ccccc1 [Compound 159]
> 10 | COc1ccc(Nc2nccc(NCC3CCN(C(C)=O)CC3)n2)cc1OCCCNc1ccccc1 [Compound 160]
> 10 | COc1ccc(Nc2nccc(N3CCC(NC(C)=O)CC3)n2)cc1OCCCN1CCCC1 [Compound 161]
> 10 | COc1ccc(Nc2nccc(N3CCN(S(C)(=O)=O)CC3)n2)cc1OCCCN1CCCC1 [Compound 162]
> 10 | COc1ccc(Nc2cc(N(C)CC3CCN(C(C)=O)CC3)ccn2)cc1OCCCN1CCCC1 [Compound 163]
> 10 | COc1ccc(Nc2nccc(NCc3ccc4[nH]ncc4c3)n2)cc1OCCCN1CCCC1 [Compound 164]
> 10 | COc1ccc(Nc2nccc(NCc3ccc(=O)[nH]c3)n2)cc1OCCCN1CCCC1 [Compound 165]
> 10 | COc1ccc(Nc2nccc(NCC3CCN(C(C)=O)CC3)n2)cc1OCCC(=O)N1CCCC1 [Compound 166]
0.1 to 1 | COc1ccc(Nc2nccc(NCCc3ccccn3)n2)cc1OCCCN1CCCC1 [Compound 167]
1 to 10 | COc1ccc(Nc2nccc(N3CCN(c4ccccn4)CC3)n2)cc1OCCCN1CCCC1 [Compound 168]
> 10 | COc1ccc(Nc2nccc(N3CCS(=O)(=O)CC3)n2)cc1OCCCN1CCCC1 [Compound 169]
> 10 | COc1ccc(Nc2nccc(N3CC(C(=O)N(C)C)C3)n2)cc1OCCCN1CCCC1 [Compound 170]
1 to 10 | COc1ccc(Nc2nccc(N(C)C)n2)cc1OCCCN1CCCC1 [Compound 171]
> 10 | COc1ccc(Nc2nccc(N(C)CC3CCN(C(C)=O)CC3)n2)cc1OCCCN1CCCC1 [Compound 172]
> 10 | COc1ccc(Nc2cc(OCC3CCN(C(C)=O)CC3)ccn2)cc1OCCCN1CCCC1 [Compound 173]
> 10 | COc1ccc(Nc2nccc(C)n2)cc1OCCCN1CCCC1 [Compound 174]
> 10 | COc1ccc(Nc2nc(C)cc(C)n2)cc1OCCCN1CCCC1 [Compound 175]
> 10 | CNc1cccc(Nc2ccc(OC)c(OCCCN3CCCC3)c2)n1 [Compound 176]

IC50 [µM] | Structure (SMILES)
> 10 | COCCN(C)c1ccnc(Nc2ccc(OC)c(OCCCN3CCCC3)c2)n1 [Compound 177]
0.1 to 1 | COc1ccc(Nc2nccc(NCCC3CCOCC3)n2)cc1OCCCN1CCCC1 [Compound 178]
> 10 | COc1ccc(Nc2nccc(N3CC(C(N)=O)C3)n2)cc1OCCCN1CCCC1 [Compound 179]
> 10 | COc1ccc(Nc2nccc(-n3cc(C)cn3)n2)cc1OCCCN1CCCC1 [Compound 180]
> 10 | COc1ccc(Nc2ncc(CO)cn2)cc1OCCCN1CCCC1 [Compound 181]
> 10 | COc1cnc(Nc2cc(NCC3CCN(C(C)=O)CC3)ccn2)cc1OCCCN1CCCC1 [Compound 182]
1 to 10 | COc1ccc(Nc2nccc(NCC3CCN(C(C)=O)CC3)n2)cc1OCC(C)CN1CCCC1 (centres unmarked) [Compound 183]
> 10 | COc1ccc(Nc2cncc(NCC3CCN(C(C)=O)CC3)c2)cc1OCCCN1CCCC1 [Compound 184]
> 10 | COc1ccc(Nc2cc(NCC3CCN(C(C)=O)CC3)cnn2)cc1OCCCN1CCCC1 [Compound 185]
0.1 to 1 | CNc1cc(C)nc(Nc2ccc(OC)c(OCCCN3CC[C@@H](F)C3)c2)n1 [Compound 186]
1 to 10 | CNc1nc(Nc2ccc(OC)c(OCCCN3CCCC3)c2)ncc1F [Compound 187]
> 10 | CNc1cc(Nc2ccc(OC)c(OCCCN3CCCC3)c2)cnn1 [Compound 188]
0.1 to 1 | COc1ccc(Nc2nccc(NCc3ccc4nccn4c3)n2)cc1OCCCN1CCCC1 [Compound 191]
1 to 10 | COc1ccc(Nc2nccc(NC3CN(C(C)=O)C3)n2)cc1OCCCN1CCCC1 [Compound 192]
0.1 to 1 | COc1ccc(Nc2nccc(NCCn3cccn3)n2)cc1OCCCN1CCCC1 [Compound 193]
1 to 10 | COc1ccc(Nc2nccc(NCC3CCN(C(C)=O)CC3)n2)cc1OC(C)CCN1CCCC1 (centres unmarked) [Compound 195]
1 to 10 | COc1ccc(Nc2nccc(NCC3CCN(S(C)(=O)=O)CC3)n2)cc1OCCCN1CCCC1 [Compound 199]
0.1 to 1 | CCOC(=O)N1CCC(CNc2ccnc(Nc3ccc(OC)c(OCCCN4CCCC4)c3)n2)CC1 [Compound 203]
> 10 | COc1ccc(Nc2nccc(NCC3CCOCC3)n2)cc1OCCN1CCOCC1 [Compound 204]
